Values of other authors in patent US6491952B1, “Cholesterol lowering composition” (Triple Crown AB, priority 1998, dated 2002).

Conditions: daily intake; references 1-5

In the case of CC[C@H](CC[C@@H](C)[C@H]1CC[C@H]2[C@@H]3CC[C@H]4C[C@@H](O)CC[C@]4(C)[C@H]3CC[C@]12C)C(C)C [β-sitostanol], the cholesterol lowering effect is listed as “cholesterol lowering effect”.
For CC[C@H](CC[C@@H](C)[C@H]1CC[C@H]2[C@@H]3CC=C4C[C@@H](O)CC[C@]4(C)[C@H]3CC[C@]12C)C(C)C [β-sitosterol], the cholesterol lowering effect is given as “cholesterol lowering effect”.
